From US8227408B2, “Leptin as an anti-amyloidogenic biologic and methods for delaying the onset and reducing Alzheimer's disease-like pathology” (Neurotez, Inc., priority 2005, dated 2012)

Legend:
[1] = system: transfected Neuro2a cells; assay: 125I-Aβ degradation and tracer uptake in culture media during treatments; format: cell-based, mouse; details: 1 mM 1,10-phenanthroline
Source text: Leptin was almost as efficient as methyl-β-cyclodextrin in lowering Aβ (FIG. 4a, 4b).

SY5Y cells = assay: 125I-Aβ uptake by SY5Y cells (apoE-dependent); format: cell-based, human
Protocol: Preparation of ApoE and binding with ^125I-Aβ. ApoE was isolated from the conditioned media of human embryonic kidney (HEK-293) cells stably-transfected with human apoE (having the ε3 allele or the ε4 allele) cDNA (Tezapsidis et al., FASEB J. 17:1322-1324 (2003)). These preparations, while usually poor in lipid, are fully functional for uptake experiments. ApoE then was pre-incubated with ^125I-Aβ overnight at 37° C. (Aβ/ApoE: 1/50 w/w) as described (Tezapsidis et al., FASEB J. 17:1322-1324 (2003)).
Aβ-uptake by SY5Y cells. Human ^125I-Aβ (iodinated at Tyr-10, Amersham Biosciences, IM 294) uptake was measured following addition of 0.1 nM ^125I-Aβ40 (SEQ ID NO: 4) to confluent SY5Y cells (60,000 cpm/ml) in the presence or absence of 100 ng/ml or 400 ng/ml leptin also included in a 24 h pre-incubation period. ^125I-Aβ was either added alone or was previously incubated with apoε3. In controls, Receptor Associated Protein (“RAP”, 1 μM) was added together with Aβ or the Aβ/apoE complex. RAP is an antagonist of a number of lipoprotein receptors (LaDu et al., Neurochem Int. 39:427-34 (2001)). After 24 h, the media were collected and subjected to scintillation counting for γ-Iradiation (Kang et al., 2000. J Clin Invest. 106:1159-66 (2000)). The amount of radioactivity was measured in both the trichloroacetic acid (10%) TCA pellets (representing intact Aβ) and the corresponding supernatants (representing degraded Aβ). 96.5±8.2% (mean±s.e.m., n=4 experiments, triplicate determinations) of the radioactivity found in the medium could be recovered in the TCA pellet and represented intact or oligomeric Aβ (not shown), when Aβ was pre-incubated with apoE.
The amount of TCA-precipitable radioactivity in the soluble fraction of cell lysates was compared to that in the total lysates, the ratio of which was typically about 0.8 to about 0.9 (not shown), to further verify that radioactivity was reduced in the media as a reflection of Aβ uptake by the cells, rather than due to non-specific binding to the extracellular surface of membranes or oligomerization/aggregation of Aβ.
In panel (a), Aβ uptake was measured in SY5Y cells following their treatment at 0 ng/ml, 100 ng/ml or 400 ng/ml leptin. Uptake also was measured in cells previously transfected with antisense DNA for PS1 as described (Tezapsidis et al., FASEB J. 17:1322-1324(2003)) (black). Uptake is expressed as the percentage of that observed with Aβ pre-incubated with apoε3 (medium gray) in the absence of leptin (first set of columns). […] Leptin induced a dose-dependent increase in Aβ uptake with a preference for apoε3 (medium gray) over apoε4 (light gray). In panel (b), SY5Y cells were pre-treated with […] cholesterol (+Chol) or normal medium (−Chol). Then Aβ uptake was measured following its preincubation with apoε3 (ε3) or apoε4 (ε4) in the absence (black) or the presence (gray) of about 400 ng/ml leptin. Cells were more resistant to taking-up Aβ when loaded with cholesterol. […] In panel (c), SY5Y cells were transiently transfected with SREBP-1 or SREBP-2 cDNA or an empty vector (Control). Then Aβ was measured in the medium by ELISAs (Figueiredo-Pereira et al., J Neurochem. 72:1417-22 (1999)) following treatment with (+) or without (−) leptin. […] In panel (d), Aβ uptake was measured in SY5Y cells prepared as in panel (c). Uptake was performed using Aβ/apoε3 complexes.

β-secretase = assay: C99/C83 accumulation in SY5Y cells in presence of γ-secretase inhibitors (Western blot); format: cell-based, human; details: 5 h, with L-685,458 (100 nM) or Z-VL-CHO (100 μM); 10 μM cholesterol or 400 ng/ml leptin alone
neurons = assay: Leptin immunostaining of neurons treated with cholesterol; format: cell-based, rat; details: neurons, 0, 5 or 10 μM cholesterol, 5 h
Protocol: (§1) Leptin was detected using a rabbit polyclonal antibody raised against mouse leptin, corss-reacting with human leptin (obtained from Dr. A. F. Parlow, Harbor-UCLA, CA). Immunofluorescent confocal microscopy was performed on 2% paraformaldehyde-fixed primary neural cells. Filipin staining was performed as described (Feng et al., Nat Cell Biol. 5:781-92 (2003)).
(§2) Neural cultures from ε15 rat cerebral cortex were processed for enrichment of neurons (a-d) or astrocytes (e-h) as described (Takeshima et al., J. Neurosci. Methods 67: 27-41 (1996)). After about 7 days to about 10 days in culture, cultures were treated for about 5 h with about 10 μg/ml cholesterol (b, f) or about 400 ng/ml leptin plus cholesterol (c, g) or leptin alone (d, h). Controls (a, e) were treated with culture media alone. Filipin staining was performed as described (Feng et al., Nat. Cell Biol. 5: 781-92 (2003)). Neurons (i-k) and astrocytes (l-n) prepared as above were treated with 0 μM (i, l), 5 μM (j, m) or 10 μM cholesterol (k, n) for 5 h. Immunostaining was performed for leptin (A.F.Parlow, Harbor-UCLA, CA).

[2] = system: Neuro2a cells stably transfected with hyg-sa134 (SEAP-APP); assay: Aβ production by Neuro2a cells stably transfected with hyg-sa134 (total Aβ in media, sandwich ELISA); format: cell-based, mouse; details: 5 h; about 400 ng/ml leptin alone or 10 μM water-soluble cholesterol alone; FIG. 4b
astrocytes = assay: Leptin immunostaining of astrocytes treated with cholesterol; format: cell-based, rat; details: astrocytes, 0, 5 or 10 μM cholesterol, 5 h
Protocol: as §1, §2

With `c1cnc2c(c1)ccc1cccnc12` [1,10-phenanthroline] the “tracer's uptake by the cells” value [1] was “did not cause any significant difference” and the “Aβ degradation during the uptake” value (SY5Y cells; absence of apoE) was “abolished Aβ degradation”.

In the case of `CC(C)CCC[C@@H](C)[C@H]1CC[C@H]2[C@@H]3CC=C4C[C@@H](O)CC[C@]4(C)[C@H]3CC[C@]12C` [cholesterol], the C99 level (β-secretase) is reported as “increase in C99”, the “levels of leptin-like immunoreactivity” value (neurons) is reported as “enhanced” and the “apoε3-Aβ taken up compared to controls” value (SY5Y cells; SY5Y cells preloaded with cholesterol/CDX, without leptin, FIG. 5b) is reported as 22±6%. For the same compound, the “levels of Aβ detected in the media (percentage of corresponding controls)” value [2] was 205±6% and the “levels of leptin-like immunoreactivity” value (astrocytes) was “enhanced”.
